Several values for one entry are separate records, joined by “and”; a condition that tells them apart may be missing. Equal values may be shown once. Read-outs that look alike come from different tables or passages of the source.
Experiments:
[1] = tested on: E. rostratum; parameters: method as in earlier work; details: filamentous fungi M38-A2, this isolate; cited from earlier work
[2] = tested on: E. rostratum conidia; assay: conidia growth inhibition ATP content assay (RPMI, 1536-well); format: cell-based, Exserohilum rostratum; details: for Emax: 46 µM Amphotericin B = 100%
In short: (§1)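 Fungicidal screen: OD-normalised hyphal fragments (15,000/well) in PBS, or conidia (250/well) in RPMI, exposed 24 h at 30°C to compound at 46 µM. Viability read as ATP luminescence (ATPLite), normalised to DMSO (100%) and 46 µM amphotericin B (0%).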

[3] = tested on: E. rostratum hyphal fragments; assay: colony formation assay of hyphal fragments; format: cell-based, Exserohilum rostratum; details: 2 times respective IC50, 37°C, 24 h; p<0.01
Protocol: 10 µl of hyphal suspension (processed as described above) was transferred to 1.7 mL microfuge tubes, each containing 28 nM amphotericin B, 242 nM posaconazole, or 10% DMSO in 1 ml PBS. Tubes containing hyphae and drug were incubated at 37°C in a shaking incubator for 24 h, then 200 µl of the hyphae drug suspension was spread on Yeast Extract Peptone Dextrose (YPD) plates for 24 h at 30°C and the number of colony forming units were scored. The experiments were performed in triplicate.
Mixtures were cultured at 37°C in a shaking incubator for 24 h, then the hyphal suspensions were inoculated on Yeast Extract Peptone Dextrose (YPD) plates that were incubated for 1 day. The number of colonies on each YPD plate was counted.

[4] = tested on: E. rostratum hyphal fragments; assay: hyphal fragment fungicidal ATP content assay (PBS, 1536-well); format: cell-based, Exserohilum rostratum; details: Exserohilum rostratum; for Emax: 46 µM Amphotericin B = 100%
In short: as §1

[5] = tested on: SH-SY5Y cells; assay: SH-SY5Y cytotoxicity counter-screen (ATP content assay); format: cell-based, Human; details: for SH-SY5Y % Max. Resp.: Table 2, SH-SY5Y, inact. = no significant activity at 46 µM; for cytotoxicity in SH-SY5Y mammalian cells: concentration up to 46 µM
In short: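 SH-SY5Y human neuroblastoma cells grown in DMEM/F-12 with 10% FBS at 37 °C, 5% CO2. Viability counter-screen measured cellular ATP by luciferase luminescence (ATPLite) in 1536-well format.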

[6] = parameters: method as in PMID 12445558; details: 8 hours after intravenous (iv) administration of 20 mg/kg; cited from earlier work
[7] = tested on: E. rostratum; assay: drug repurposing screen against E. rostratum; format: cell-based, Exserohilum rostratum; details: in our experiments
Source text: The library of pharmacologically active compounds (LOPAC) consists of 1280 small molecules with characterized biological activities. The LOPAC library (Sigma-Aldrich) has been extensively used for HTS assay validations, [18]. The NIH Chemical Genomics Center Pharmaceutical (NPC) collection was constructed in-house through a combined effort of compound purchasing and custom synthesis and recently expanded to 4096 compounds. In this drug libarary, 52% of which are drugs approved for human or animal use by the United States Food and Drug Administration (FDA), 22% are drugs approved in Europe, Canada, or Japan, and the remaining 25% are compounds that have entered clinical trials or are research compounds commonly used in biomedical research. […] 2.5 µl/well PBS was dispensed into 1536-well plates using a Multidrop-Combi dispenser. Compound in DMSO solution was transferred in a volume of 23 nl/well using a NX-TR pintool station (WAKO Scientific Solutions, San Diego, CA). This additional PBS step for compound addition was designed to prevent the potential fungal contamination of compound libraries. The hyphal fragments in PBS were then added at 2.5 µl/well for a final seeding density of 15,000 hyphal fragments/well using the Multidrop-Combi dispenser. The final compound concentration was 46 µM in the primary screen. […]

[8] = Exserohilum rostratum, 24 h, Table 2, 24 h, inact. = no significant activity at the highest compound concentration (46 µM), read-out: Conidia IC50
[9] = Exserohilum rostratum, Table 2, inact. = no significant activity at 46 µM, read-out: Conidia % Max. Resp.
[10] = Table 2, inact. = no significant activity in the primary screen, read-out: Hyphae % Max. Resp.
[11] = Table 2, 24 h, inact. = no significant activity in the primary screen, read-out: Hyphae IC50
[12] = Exserohilum rostratum, Figure 5, read-out: IC50 Conidia
[13] = Figure 5, read-out: IC50 Hyphae

In the case of `C[C@@H]1[C@H](O)[C@@H](C)/C=C/C=C/C=C/C=C/C=C/C=C/C=C/[C@H](O[C@@H]2O[C@H](C)[C@@H](O)[C@H](N)[C@@H]2O)C[C@@H]2O[C@](O)(C[C@@H](O)C[C@@H](O)[C@H](O)CC[C@@H](O)C[C@@H](O)CC(=O)O[C@H]1C)C[C@H](O)[C@H]2C(=O)O` [Amphotericin B], the “value determined from the microdilution method” value (“value determined” for short) [1] is listed as 60 nM, the IC50 ([2]; 250 conidia/well, read-out: conidia IC50) is listed as 9.71 nM and the IC50 [2, 8] is listed as 12 nM. It also gave an IC50 ([2]; Exserohilum rostratum, Table S1, Inact. = no significant activity at the highest compound concentration (46 µM), read-out: Conidia IC50) of 806 nM, an IC50 ([2]; Exserohilum rostratum, 250 conidia/well, read-out: conidia IC50) of 9.41 nM and an Emax [2, 9] of 104%. The Emax ([2]; Exserohilum rostratum, Table S1, Inact. = no significant activity at 46 µM, read-out: Conidia % M. Res.) was 104%, the “hyphae-derived colony forming units (CFU) compared to DMSO control” value [3] was “significantly reduced” and the IC50 ([4]; 15000 fragments/well, read-out: hyphae IC50) was 12.4 nM. The Emax [4, 10] was 84%, the IC50 [4, 11] was 14 nM and the Emax ([4]; Table S1, Inact. = no significant activity in the primary screen, read-out: Hyphae % M. Res.) was 84%. The “SH-SY5Y % Max. Resp.” value ([5]; 46 µM Amphotericin B = 100%) was “inact”, the “SH-SY5Y % Max. Resp.” value [5] was “inact” and the “SH-SY5Y % M. Res.” value ([5]; Table S1, 46 µM Amphotericin B = 100%, Inact. = no significant activity at 46 µM) was “Inact”. For the same molecule, the “SH-SY5Y IC50” value ([5]; Table S1, Inact. = no significant activity at the highest compound concentration (46 µM)) was “Inact”.
In the case of `O=c1[nH]c(=O)n([C@H]2C[C@H](O)[C@@H](CO)O2)cc1F` [Floxuridine], the brain concentrations [6] is given as “above 600 nM”, the IC50 [2, 8] is given as 288 nM and the Emax [2, 9] is given as 29%. The “hyphae-derived colony forming units (CFU) compared to DMSO control” value [3] was “significantly reduced”, the Emax [4, 10] was 77% and the IC50 [4, 11] was 846 nM. For the same molecule, the “SH-SY5Y % Max. Resp.” value ([5]; 46 µM Amphotericin B = 100%) was “inact” and the “SH-SY5Y % Max. Resp.” value [5] was “inact”.
In the case of `C[C@@H](c1ncncc1F)[C@](O)(Cn1cncn1)c1ccc(F)cc1F` [Voriconazole], the “value determined” value [1] is listed as 2 µg/ml and 5.7 µM, the IC50 [2, 8] is listed as 2900 nM and the IC50 [2, 12] is listed as 3700 nM. The Emax [2, 9] was 101%, the IC50 ([2]; Exserohilum rostratum, read-out: conidia IC50) was 2910 nM and the “hyphae-derived colony forming units (CFU) compared to DMSO control” value [3] was “significantly reduced”. For the same molecule, the IC50 [4, 13] was 2820 nM, the Emax [4, 10] was 94% and the IC50 [4, 11] was 2600 nM. For the same molecule, the IC50 ([4]; read-out: hyphae IC50) was 2640 nM, the “SH-SY5Y % Max. Resp.” value ([5]; 46 µM Amphotericin B = 100%) was “inact” and the “SH-SY5Y % Max. Resp.” value [5] was “inact”. The “cytotoxicity in SH-SY5Y mammalian cells” value [5] was “no significant cytotoxicity”.
In the case of `CC[C@@H]([C@H](C)O)n1ncn(-c2ccc(N3CCN(c4ccc(OC[C@@H]5CO[C@@](Cn6cncn6)(c6ccc(F)cc6F)C5)cc4)CC3)cc2)c1=O` [Posaconazole], the “value determined” value [1] is given as 0.25 µg/ml and 360 nM, the IC50 [2, 8] is given as 97 nM and the IC50 [2, 12] is given as 79 nM. The Emax [2, 9] was 106%, the “hyphae-derived colony forming units (CFU) compared to DMSO control” value [3] was “significantly reduced” and the IC50 [4, 13] was 164 nM. For the same molecule, the Emax [4, 10] was 78%, the IC50 [4, 11] was 121 nM and the “SH-SY5Y % Max. Resp.” value ([5]; 46 µM Amphotericin B = 100%) was “inact”. For the same molecule, the “SH-SY5Y % Max. Resp.” value [5] was “inact” and the “cytotoxicity in SH-SY5Y mammalian cells” value [5] was “no significant cytotoxicity”.
With `CCCSc1ccc2nc(NC(=O)OC)[nH]c2c1` [albendazole] the “activity against E. rostratum” value [7] was “not active”.
